The text below walks through data of US20250236596A1, “HYDROXYLAMINE-BASED EGFR INHIBITORS FOR TREATMENT OF CANCER WITH BRAIN METASTASES” (University of Georgia Research Foundation, Inc., priority 2022, published 2025).

One series deals with CYP2C19 (Homo sapiens, UniProt P33261). As to the kind of experiment: Human CYP450 inhibition in human liver microsomes, CYP2C19. Format: in vitro ADME. Conditions: pooled human liver microsomes, probe (S)-mephenytoin (50 μM), 4′-hydroxylation. Here is the method:
Assessment of compound 15 was carried out at Pharmaron Inc. for its potential to inhibit cytochrome P450 (CYP) isoforms using human liver microsomes. The activities tested were CYP1A2-mediated phenacetin O-demethylation, CYP2C19-mediated (S)-mephenytoin 4′-hydroxylation, CYP2C9-mediated diclofenac 4′-hydroxylation, CYP2D6-mediated dextromethorphan O-demethylation and CYP3A4-mediated midazolam 1′-hydroxylation. Concentrations of substrates were phenacetin (40 μM), mephenytoin (50 μM), diclofenac (6 μM), dextromethorphan (2 μM) and midazolam (1 μM). Probe substrates phenacetin, mephenytoin and dextromethorphan were incubated at 37° for 20 min. Probe substrates diclofenac and midazolam were incubated at 37° for 5 min. […] The reactions were initiated by adding NADPH (1 mM final concentration) after a 5 min-preincubation and the assay was ran in duplicate (n=2). Samples were analyzed by UPLC-MS/MS.

Series [1] deals with Ba/F3 EGFR-del E746_A750/C797S cells. As to the kind of experiment: CellTiter-Glo viability assay, Ba/F3 EGFR-del E746_A750/C797S. It is filed as cell-based. The conditions noted are these: Mus musculus, BaF3, osimertinib-resistant, 72 h, read-out: antiproliferative IC50. How it is done: (§1) The A431, HCC827, SK-BR-3, ZR-75-30, AU565 and Caco-2 cell lines were obtained from ATCC. The NCI-H1975 cell line was obtained from SIBS. The NCI-H3255 cell line was obtained from CoBioer. Engineered Ba/F3 cell lines were obtained from Crown Bioscience. MCKII-MDR1 cells were obtained from the Netherlands Cancer Institute. HEK293 cells were obtained from Invitrogen. A431 cells were cultured in DMEM (Life Technologies) with 10% FBS. HCC827, NCI-H1975 and AU565 cells were cultured in RPMI1640 (Invitrogen) with 10% FBS. NCI-H3255 cells were cultured in BEGM (Lonza) with 10% FBS. Ba/F3 EGFR-del E746_A750/C797S and Ba/F3 EGFR-L858R/C797S cells were cultured in RPMI (Invitrogen) with 10% FBS. SK-BR-3 cells were cultured in McCoy's 5a (Invitrogen) with 10% FBS. ZR-75-30 cells were cultured in RPMI1640 (Invitrogen) with 20% FBS. BT474 cells were cultured in DMEM (Gibco) with 10% FBS and 10 μg/mL Insulin. Caco-2 and MCKII-MDR1 culture information is given in the permeability studies section. […]
(§2) Viability assays using A431, HCC827, NCI-H1975, NCI-H3255, Ba/F3 EGFR-del E746_A750/C797S, Ba/F3 EGFR-L858R/C797S, AU565, SK-BR-3 and ZR-75-30 cells were performed at Crown BioScience. […] Dose-response curves were generated and used to calculate the IC50 values which were calculated on GraphPad Prism from the non-linear regression equation fitted with a sigmoidal dose response and are presented as the mean±SEM.
(In ATP-based viability assays light output follows the ATP content of the culture.)

Series [2] deals with Salmonella strains (TA98, TA100, TA1537 and TA1535). Format: cell-based. The conditions noted are these: bacterial cytotoxicity observed above. How it is done: Compounds were assessed for mutagenicity at Eurofins Panlabs. in 384-well plates using four Salmonella strains: TA98, to probe for frameshift mutation (with quercetin as control), TA100 and TA1535, to probe for base pair […] (with streptozotocin as control), and TA1537, to probe for frameshift mutations (with aminoacridine as control) as previously described.^21 Each compound was incubated at 37° C. for 96 h at four different concentrations (5, 10, 50, and 100 μM), with each concentration tested using 48 replicates, both with and without rat liver S9 metabolic activation. A concurrent bacterial cytotoxicity assay was ran at 0.6, 1.2, 2.5, 5, 10, 25, 50 and 100 μM to rule out false negatives. Bacterial cytotoxicity was expressed as percent of control growth (OD650). Compounds with growth of less than 60% control were flagged and considered bacterial cytotoxic. […] Significances of the positive counts between the treatment and control were determined using one-tailed Fisher's exact test.

Series [3] relates to 468-member human kinase panel. As to the kind of experiment: KINOMEScan kinase selectivity panel, S score. It is filed as binding. Conditions: 1 μM; 6/403 nonmutant kinases.
Description: Percent control was mapped onto the kinome tree using TREEspot™.
A short description of series [4]: Pharmacokinetics in SD rats (IV and PO). The conditions noted are these: SD rats at the tested doses. Format: in vivo. How it is done: Animal experiments were performed at Pharmaron Inc. and animal use was approved by Pharmaron's Institutional Animal Care and Use Committee (IACUC) in Pharmaron (Pharmaron IACUC, Protocol #PK-M-07182022, #PK-R-06012022 and #ON-CELL-XEN-06012022) following the guidance of AAALAC. Six- to eight-week-old male SD rats (approximately 200-300 g) obtained from Si Bei Fu Laboratory Animal Technology Co., six- to eight-week-old male CD1 mice (approximately 20-30 g) obtained from Si Bei Fu Laboratory Animal Technology Co., and six- to eight-week-old female BALB/c nude mice (approximately 20-30 g) obtained from Si Bei Fu Laboratory Animal Technology Co., were used in the pharmacokinetic studies. Six- to eight-week-old female BALB/c nude mice (approximately 18-22 g) obtained from Beijing Anikeeper Biotech Co., Ltd were used in the intracranial PDX study. […]
Approximately 0.03 mL of blood was collected from the dorsal metatarsal vein (in the case of CD1 mice), 0.03 mL of blood from the orbit vein (in the case of BALB/c nude mice) or 0.2 mL of blood from the jugular vein (in the case of SD rats) at each time point. […] Concentrations of test articles in the plasma samples were determined using LC-MS/MS and WinNonlin 8.3 (Phoenix™) was used for pharmacokinetic calculations. […]

Series [5] concerns HER2-positive breast cancer cell lines: AU565, SK-BR-3, BT474 and ZR-75-30. The series can be described thus: CellTiter-Glo viability assay, HER2+ breast cancer cell lines. Format: cell-based, human. The conditions noted are these: AU565, SK-BR-3, BT474, ZR-75-30; result in words. Here is the method: as §1, §2

A value given as a limit tells only on which side of the number the result lay.

Chain of CYP2C19 (P33261 whole entry, canonical isoform): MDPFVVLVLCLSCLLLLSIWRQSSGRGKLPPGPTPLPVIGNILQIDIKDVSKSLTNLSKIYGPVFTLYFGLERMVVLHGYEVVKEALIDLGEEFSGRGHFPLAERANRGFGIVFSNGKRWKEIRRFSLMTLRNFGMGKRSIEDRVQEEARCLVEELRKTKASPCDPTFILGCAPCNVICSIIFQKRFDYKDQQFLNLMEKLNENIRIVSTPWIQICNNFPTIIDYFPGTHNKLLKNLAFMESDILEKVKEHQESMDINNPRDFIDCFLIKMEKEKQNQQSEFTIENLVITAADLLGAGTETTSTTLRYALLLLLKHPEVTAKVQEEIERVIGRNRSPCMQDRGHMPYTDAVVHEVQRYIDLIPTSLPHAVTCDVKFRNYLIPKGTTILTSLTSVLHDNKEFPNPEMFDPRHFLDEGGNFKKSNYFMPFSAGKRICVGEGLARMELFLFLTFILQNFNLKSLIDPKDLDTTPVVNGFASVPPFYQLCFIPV

The IC50 is the point on the concentration scale where inhibition reaches its midpoint. Consider `COc1cc2ncnc(Nc3cccc(Cl)c3F)c2cc1OCCON1CCN(C)CC1` [Compound 15, N-(3-chloro-2-fluorophenyl)-7-methoxy-6-(2-((4-methylpiperazin-1-yl)oxy)ethoxy)quinazolin-4-amine], for which the IC50 at 20 min at CYP2C19 is over 30000 nM. Besides, the IC50 in series [1] was 2.5 nM. Besides, the “concentration up to which negative ames result is valid” value in series [2] is “up to 50 uM”. Moreover, the “S(10) score” value in series [3] stood at 0.015. Also, in series [4], the “adverse events or signs of toxicity” value was “No adverse events or signs of toxicity”. Also, in series [5], the antiproliferative activity entry is “moderate antiproliferative activity”.
